Test results reported in publication PMC11352370, “Live Cell Monitoring of Phosphodiesterase Inhibition by Sulfonylurea Drugs” (Biomolecules, 2024).

Test system: T1, PDE3B
T1 construct: Epac2-camps-PDE3B fusion biosensor
Assay: live-cell FRET with Epac-camps/PDE3B fusion biosensors in HEK293a cells
Format: cell-based

- IC50: ~700 µM
SMILES: CCCCNC(=O)NS(=O)(=O)c1ccc(C)cc1 [TOL, tolbutamide]
